Experimental data reported in ChEMBL document CHEMBL5518156, “Recent advances of targeting nicotinamide phosphoribosyltransferase (NAMPT) for cancer drug discovery” (Eur J Med Chem, 2023).
pIC50: −log10 of the molar value. One block for each molecule: values may come before it.

Columns and labels:
[1] = Clearance in cynomolgus monkey at 5 mg/kg, po; type: ADME, organism-based, Macaca fascicularis; conditions: in vivo
[2] = Clearance in Beagle dog at 5 mg/kg, po; type: ADME, organism-based, Canis lupus familiaris; conditions: in vivo
[3] = Clearance in ICR mouse at 5 mg/kg, po; type: ADME, organism-based; conditions: in vivo
[4] = Clearance in Sprague-Dawley rat at 5 mg/kg, po; type: ADME, organism-based; conditions: in vivo
[5] = Oral bioavailability in ICR mouse at 5 mg/kg by LC-MS/MS analysis; type: ADME, organism-based; conditions: in vivo
[6] = Oral bioavailability in Sprague-Dawley rat at 5 mg/kg by LC-MS/MS analysis; type: ADME, organism-based; conditions: in vivo
[7] = Oral bioavailability in Cynomolgus monkey at 5 mg/kg; type: ADME, organism-based, Macaca fascicularis; conditions: in vivo
[8] = Oral bioavailability in Beagle dog at 5 mg/kg; type: ADME, organism-based, Canis lupus familiaris; conditions: in vivo
COLO 205 = experiment: Antitumor activity against human COLO 205 cells xenografted in mouse model assessed as tumor growth inhibition at 15 mg/kg, po administered once daily for 7 days relative to control; type: functional; conditions: COLO 205, 168 h, time 7 day, read-out: TGI
[9] = Oral bioavailability in Sprague-Dawley rat at 10 mg/kg by LC-MS analysis; type: ADME, organism-based; conditions: in vivo
[10] = Cmax in Sprague-Dawley rat at 10 mg/kg, po by LC-MS analysis; type: ADME, organism-based; conditions: in vivo
[11] = biological target: T1, Nicotinamide phosphoribosyltransferase (Homo sapiens, UniProt P43490); experiment: Inhibition of NAMPT (unknown origin)
SH-SY5Y = experiment: Antiproliferative activity against human SH-SY5Y cells assessed as cell growth inhibition measured for 48 hrs by MTT assay; type: functional, cell-based
Histone deacetylase 1 = Histone deacetylase 1 (Homo sapiens, UniProt Q13547); experiment: Inhibition of human recombinant HDAC1 using Boc-Lys(Ac)-AMC as substrate preincubated for 30 mins followed by substrate addition measured for 1 hr by fluorescence based analysis
Cytochrome P450 3A4 = Cytochrome P450 3A4 (Homo sapiens, UniProt P08684); experiment: Inhibition of CYP3A4 (unknown origin); type: ADME
[12] = Oral bioavailability in Sprague-Dawley rat at 5 mg/kg; type: ADME, organism-based; conditions: in vivo
[13] = Half life in Sprague-Dawley rat at 5 mg/kg, po measured for 24 hrs by LC/MS/MS analysis; type: ADME, organism-based; conditions: in vivo
Cytochrome P450 2C9 = Cytochrome P450 2C9 (Homo sapiens, UniProt P11712); experiment: Inhibition of CYP2C9 (unknown origin); type: ADME
HCT-116 = experiment: Antitumor activity against human HCT-116 cells xenografted in […] mouse assessed as tumor growth inhibition at 15 mg/kg, po administered for 3 days relative to control; type: functional; conditions: HCT-116, 72 h, time 3 day, read-out: TGI
MIA PaCa-2 = experiment: Antiproliferative activity against human MIA PaCa-2 cells assessed as reduction in cell viability incubated for 72 hrs by MTT assay; type: functional, cell-based; conditions: MIA PaCa-2, 72 h
[14] = biological target: Epidermal growth factor receptor (Homo sapiens, UniProt P00533, L858R); experiment: Inhibition of EGFR L858R mutant (unknown origin)
[15] = biological target: Epidermal growth factor receptor (Homo sapiens, UniProt P00533, L861Q); experiment: Inhibition of human EGFR L861Q mutant by discoverX kinome scan assay
[16] = Clearance in Sprague-Dawley rat at 1 mg/kg, iv; type: ADME, organism-based; conditions: in vivo
[17] = biological target: T1, Nicotinamide phosphoribosyltransferase; experiment: Inhibition of N-terminal 6His-tagged human NAMPT (unknown origin) expressed in Escherichia coli Rosetta (DE) cells incubated for 1 hr by […]
A2780 [18] = experiment: Antiproliferative activity against human A2780 cells assessed as reduction in cell viability measured for 72 hrs by MTT assay; type: functional, cell-based; conditions: A2780, 72 h
[19] = Oral bioavailability in CD-1 mouse at 2 mg/kg; type: ADME, organism-based; conditions: in vivo
[20] = Cmax in CD-1 mouse at 2 mg/kg, iv; type: ADME, organism-based; conditions: in vivo
[21] = AUC in CD-1 mouse at 2 mg/kg, iv; type: ADME, organism-based; conditions: in vivo
[22] = Clearance in CD-1 mouse at 2 mg/kg, iv; type: ADME, organism-based; conditions: in vivo
A549 [23] = experiment: Antitumor activity against human A549 cells xenografted in BALB/c nude mouse assessed as tumor growth inhibition at 10 mg/kg, ip administered once daily for 20 days relative to control; type: functional; conditions: A549, 480 h, time 20 day, read-out: TGI
A549 [24] = experiment: Antitumor activity against human A549 cells xenografted in BALB/c nude mouse assessed as tumor growth inhibition at 20 mg/kg, ip administered once daily for 20 days relative to control; type: functional; conditions: A549, 480 h, time 20 day, read-out: TGI
[25] = Oral bioavailability in mouse at 2 mg/kg; type: ADME, organism-based; conditions: in vivo
[26] = biological target: von Hippel-Lindau disease tumor suppressor/Nicotinamide phosphoribosyltransferase (Homo sapiens, UniProt P43490+P40337); experiment: Protac activity at VHL/NAMPT in human A2780 cells assessed as degradation of NAMPT using NAM as substrate pre-incubated for 30 mins followed by substrate addition measured for 1 hr in presence of ATP by luminescence based microplate reader analysis; type: cell-based
[27] = Half life in mouse plasma at 5 mg/kg, iv by LC-MS/MS analysis; type: ADME, organism-based
[28] = Cmax in mouse plasma at 30 mg/kg, ip measured upto 24 hrs by LC-MS/MS analysis; type: ADME, organism-based
A2780 [29] = experiment: Antitumor activity against human A2780 cells xenografted in BALB/c nu/nu mouse assessed as tumor growth inhibition at 30 mg/kg, iv administered once daily for 2 weeks relative to control; type: functional; conditions: A2780, 336 h, read-out: TGI

T1 sequence (P43490 whole entry): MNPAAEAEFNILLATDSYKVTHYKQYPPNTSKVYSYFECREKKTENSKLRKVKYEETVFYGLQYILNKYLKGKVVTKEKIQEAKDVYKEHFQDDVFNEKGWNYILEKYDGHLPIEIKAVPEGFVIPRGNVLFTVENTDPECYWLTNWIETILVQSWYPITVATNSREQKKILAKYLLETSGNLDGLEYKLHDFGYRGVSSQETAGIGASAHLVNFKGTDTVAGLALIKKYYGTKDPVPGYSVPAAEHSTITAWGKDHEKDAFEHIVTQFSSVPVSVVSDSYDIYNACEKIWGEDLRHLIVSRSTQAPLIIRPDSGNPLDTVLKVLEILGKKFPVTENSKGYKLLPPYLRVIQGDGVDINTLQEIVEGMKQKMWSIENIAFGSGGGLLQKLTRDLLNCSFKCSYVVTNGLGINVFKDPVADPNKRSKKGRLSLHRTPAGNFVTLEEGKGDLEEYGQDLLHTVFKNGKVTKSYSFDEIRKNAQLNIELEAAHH
Epidermal growth factor receptor (Homo sapiens, UniProt P00533, L858R), sequence (P00533 25-1210 L858R limits assumed): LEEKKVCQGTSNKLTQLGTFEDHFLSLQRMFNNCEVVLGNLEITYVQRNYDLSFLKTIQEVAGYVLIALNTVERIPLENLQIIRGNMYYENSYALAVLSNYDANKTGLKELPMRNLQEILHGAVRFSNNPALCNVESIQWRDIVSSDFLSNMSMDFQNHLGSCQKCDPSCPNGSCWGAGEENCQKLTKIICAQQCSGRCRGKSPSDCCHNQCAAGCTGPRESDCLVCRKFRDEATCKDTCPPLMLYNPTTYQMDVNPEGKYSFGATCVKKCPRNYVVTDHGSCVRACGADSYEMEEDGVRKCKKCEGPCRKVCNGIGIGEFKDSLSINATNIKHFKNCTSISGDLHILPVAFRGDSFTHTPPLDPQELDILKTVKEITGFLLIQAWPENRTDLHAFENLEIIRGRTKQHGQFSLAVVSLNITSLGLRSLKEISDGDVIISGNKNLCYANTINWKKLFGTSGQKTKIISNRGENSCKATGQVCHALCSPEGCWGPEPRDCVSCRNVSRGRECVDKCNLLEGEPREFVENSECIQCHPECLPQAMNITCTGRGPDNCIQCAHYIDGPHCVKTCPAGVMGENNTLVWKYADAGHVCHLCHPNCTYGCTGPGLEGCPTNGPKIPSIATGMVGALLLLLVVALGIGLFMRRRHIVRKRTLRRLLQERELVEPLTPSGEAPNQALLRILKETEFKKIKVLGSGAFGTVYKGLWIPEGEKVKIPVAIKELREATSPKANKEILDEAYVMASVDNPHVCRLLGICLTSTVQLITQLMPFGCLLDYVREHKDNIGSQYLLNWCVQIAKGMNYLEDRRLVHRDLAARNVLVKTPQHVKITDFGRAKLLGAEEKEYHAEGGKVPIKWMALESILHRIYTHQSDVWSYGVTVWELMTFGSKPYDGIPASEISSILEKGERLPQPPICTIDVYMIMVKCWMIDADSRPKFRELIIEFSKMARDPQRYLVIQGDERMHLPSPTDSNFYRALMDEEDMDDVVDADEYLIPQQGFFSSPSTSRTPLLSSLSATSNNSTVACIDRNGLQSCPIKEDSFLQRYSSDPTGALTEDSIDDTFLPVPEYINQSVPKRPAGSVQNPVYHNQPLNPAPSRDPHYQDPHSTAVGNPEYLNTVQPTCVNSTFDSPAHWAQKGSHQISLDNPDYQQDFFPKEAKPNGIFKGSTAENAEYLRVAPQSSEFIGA
Histone deacetylase 1, sequence (Q13547 whole entry): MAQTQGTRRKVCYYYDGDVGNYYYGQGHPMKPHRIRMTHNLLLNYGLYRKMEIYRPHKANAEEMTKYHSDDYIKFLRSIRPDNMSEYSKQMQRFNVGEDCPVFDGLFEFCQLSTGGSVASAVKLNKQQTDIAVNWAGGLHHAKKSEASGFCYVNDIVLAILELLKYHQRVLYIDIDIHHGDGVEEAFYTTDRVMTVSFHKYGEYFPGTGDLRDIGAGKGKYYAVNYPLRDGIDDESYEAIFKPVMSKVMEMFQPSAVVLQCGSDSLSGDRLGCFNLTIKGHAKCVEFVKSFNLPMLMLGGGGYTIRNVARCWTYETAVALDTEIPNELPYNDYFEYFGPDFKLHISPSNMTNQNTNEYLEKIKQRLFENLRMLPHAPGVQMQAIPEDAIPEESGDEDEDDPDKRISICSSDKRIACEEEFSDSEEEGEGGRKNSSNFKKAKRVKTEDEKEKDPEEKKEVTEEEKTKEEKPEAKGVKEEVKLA
Epidermal growth factor receptor (Homo sapiens, UniProt P00533, L861Q), sequence (P00533 25-1210 L861Q limits assumed): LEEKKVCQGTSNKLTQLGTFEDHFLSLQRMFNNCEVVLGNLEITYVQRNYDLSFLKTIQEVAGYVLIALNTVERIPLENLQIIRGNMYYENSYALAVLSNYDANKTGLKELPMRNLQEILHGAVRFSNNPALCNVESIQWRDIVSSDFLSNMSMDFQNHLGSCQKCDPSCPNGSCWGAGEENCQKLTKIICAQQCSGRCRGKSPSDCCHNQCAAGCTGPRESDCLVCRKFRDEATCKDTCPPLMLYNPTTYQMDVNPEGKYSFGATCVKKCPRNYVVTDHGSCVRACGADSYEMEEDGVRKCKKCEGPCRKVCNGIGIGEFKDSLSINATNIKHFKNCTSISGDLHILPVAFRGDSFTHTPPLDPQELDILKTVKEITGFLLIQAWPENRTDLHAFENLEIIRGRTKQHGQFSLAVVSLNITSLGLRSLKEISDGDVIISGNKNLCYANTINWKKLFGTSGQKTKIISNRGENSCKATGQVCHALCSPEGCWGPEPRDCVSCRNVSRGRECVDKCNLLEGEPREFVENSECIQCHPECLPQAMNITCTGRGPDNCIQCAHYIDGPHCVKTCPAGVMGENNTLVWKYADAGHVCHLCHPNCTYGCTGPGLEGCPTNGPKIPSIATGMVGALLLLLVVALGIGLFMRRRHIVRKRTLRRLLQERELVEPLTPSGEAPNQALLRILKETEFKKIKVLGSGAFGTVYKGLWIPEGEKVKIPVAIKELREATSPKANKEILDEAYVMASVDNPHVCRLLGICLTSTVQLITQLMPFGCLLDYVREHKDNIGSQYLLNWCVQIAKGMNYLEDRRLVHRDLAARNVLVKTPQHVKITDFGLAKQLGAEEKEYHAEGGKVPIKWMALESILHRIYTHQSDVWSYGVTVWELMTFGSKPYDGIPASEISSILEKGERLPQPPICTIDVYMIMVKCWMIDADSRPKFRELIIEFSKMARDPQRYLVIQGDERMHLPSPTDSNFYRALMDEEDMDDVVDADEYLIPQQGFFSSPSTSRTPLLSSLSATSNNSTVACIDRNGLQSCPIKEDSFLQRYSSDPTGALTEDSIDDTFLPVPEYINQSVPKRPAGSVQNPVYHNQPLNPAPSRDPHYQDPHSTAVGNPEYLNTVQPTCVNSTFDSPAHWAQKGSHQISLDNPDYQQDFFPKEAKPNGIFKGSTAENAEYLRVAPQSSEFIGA
Cytochrome P450 3A4, sequence (P08684 whole entry): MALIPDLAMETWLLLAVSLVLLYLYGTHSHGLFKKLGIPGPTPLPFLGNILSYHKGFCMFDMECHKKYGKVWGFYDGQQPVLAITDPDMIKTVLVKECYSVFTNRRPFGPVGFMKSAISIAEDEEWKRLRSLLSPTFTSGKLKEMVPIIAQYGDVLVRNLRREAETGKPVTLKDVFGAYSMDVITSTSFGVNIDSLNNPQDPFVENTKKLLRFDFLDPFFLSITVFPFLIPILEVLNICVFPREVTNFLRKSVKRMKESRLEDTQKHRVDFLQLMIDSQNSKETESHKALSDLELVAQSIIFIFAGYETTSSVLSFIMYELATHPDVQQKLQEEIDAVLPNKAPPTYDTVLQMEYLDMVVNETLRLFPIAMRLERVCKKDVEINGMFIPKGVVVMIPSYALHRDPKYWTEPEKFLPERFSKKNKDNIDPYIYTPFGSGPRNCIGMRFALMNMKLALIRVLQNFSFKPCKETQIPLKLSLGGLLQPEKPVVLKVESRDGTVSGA
von Hippel-Lindau disease tumor suppressor/Nicotinamide phosphoribosyltransferase, sequence (P43490 whole entry): as the sequence (P43490 whole entry) above
von Hippel-Lindau disease tumor suppressor/Nicotinamide phosphoribosyltransferase, sequence (P40337 whole entry): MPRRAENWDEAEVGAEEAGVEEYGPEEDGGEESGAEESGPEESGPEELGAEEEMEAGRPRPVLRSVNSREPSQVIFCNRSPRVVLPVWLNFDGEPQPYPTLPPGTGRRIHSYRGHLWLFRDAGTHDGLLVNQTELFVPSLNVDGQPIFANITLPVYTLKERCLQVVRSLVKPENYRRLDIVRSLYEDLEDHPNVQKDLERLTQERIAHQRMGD
Cytochrome P450 2C9, sequence (P11712 whole entry): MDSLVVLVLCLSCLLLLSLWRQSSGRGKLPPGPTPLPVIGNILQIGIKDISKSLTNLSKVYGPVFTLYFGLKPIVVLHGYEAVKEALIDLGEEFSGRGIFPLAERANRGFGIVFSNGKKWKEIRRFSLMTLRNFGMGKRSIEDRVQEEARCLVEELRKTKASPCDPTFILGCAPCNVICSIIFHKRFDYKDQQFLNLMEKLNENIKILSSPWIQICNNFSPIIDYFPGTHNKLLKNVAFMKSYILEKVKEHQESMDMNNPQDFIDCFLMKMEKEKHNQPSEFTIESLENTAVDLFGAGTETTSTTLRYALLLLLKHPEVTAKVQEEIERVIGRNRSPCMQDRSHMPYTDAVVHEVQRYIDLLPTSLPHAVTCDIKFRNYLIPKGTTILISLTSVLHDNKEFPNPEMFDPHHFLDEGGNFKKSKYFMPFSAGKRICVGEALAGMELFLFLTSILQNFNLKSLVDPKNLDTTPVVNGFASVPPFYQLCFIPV

Compound: O=C(NCc1ccc(S(=O)(=O)c2cc(F)cc(F)c2)cc1)c1ccc2nccn2c1
CL/F [1]: 9.14 mL/min/kg | CL/F [2]: 4.62 mL/min/kg | CL/F [3]: 36.4 mL/min/kg | CL/F [4]: 19.3 mL/min/kg | bioavailability [5]: 29.7% | bioavailability [6]: 33.9% | bioavailability [7]: 29.4% | bioavailability [8]: 65.2% | inhibition in vivo at 15 mg/kg (COLO 205): 57%

Compound: CC(C)(O)CC(=O)N1CCC(c2ccc(NC(=O)N3Cc4ccccc4C3)cc2)CC1
pIC50 (Cytochrome P450 3A4): < 4.70 | bioavailability [12]: 100% | half-life [13]: 288 min | pIC50 (Cytochrome P450 2C9): < 4.70 | inhibition in vivo at 15 mg/kg (HCT-116): 90%

Compound: COC[C@H]1N[C@@H](c2ccc(NC(=O)c3ccc(CNS(=O)(=O)c4ccc(C(C)(C)C)cc4)cc3)cc2)[C@H](OC)[C@@H]1OC
pIC50 (MIA PaCa-2): 4.49

Compound: CC(C)(O)CS(=O)(=O)Nc1ccc2c(c1)CCN(C(=O)COc1cccnc1)C2
pIC50 [11]: 8.49 | bioavailability [19]: 39% | Cmax [20]: 57 nM | AUC [21]: 195 nM·h | clearance [22]: 159 mL/min/kg

Compound: Cc1c(CNc2ccc(CCNC(=O)/C=C/c3cccnc3)cc2)oc2c1C(=O)C(=O)c1c-2ccc2c1CCCC2(C)C
inhibition in vivo at 10 mg/kg (A549 [23]): 44.2% | inhibition in vivo at 20 mg/kg (A549 [24]): 52.1% | bioavailability [25]: 5.8%

Compound: CCCn1c(=O)c(-c2ccc(C(=O)NCc3cccnc3)cc2)nc2ccc(NC(=O)CCCCCCCCCCC(=O)N[C@H](C(=O)N3C[C@H](O)C[C@H]3C(=O)N[C@@H](C)c3ccc(-c4scnc4C)cc3)C(C)(C)C)cc21
DC50 [26]: 8.4 nM | half-life [27]: 593 min | Cmax [28]: 166 nM | inhibition in vivo at 30 mg/kg (A2780 [29]): 73%

Now from value to molecule, other results behind:

bioavailability [9]: 23.2% | Cmax [10]: 135 ng/mL
Compound: O=C(/C=C/c1cccnc1)NCCCCC1CCN(C(=O)c2ccc(N3CCN(CCCCCCC#Cc4cccc5c4CN(C4CCC(=O)NC4=O)C5=O)CC3)cc2)CC1 (configuration not stated)

pIC50 [11]: 7.87 | pIC50 (SH-SY5Y): < 5.00
Compound: O=C(NCCCCCCCn1cc(-c2cccnc2)nn1)c1cccc(-n2cc(CN3CCC(O)CC3)nn2)c1

pIC50 (Histone deacetylase 1): 4.26
Compound: Nc1ccccc1NC(=O)c1ccc(Cn2cc(-c3ccc(C(=O)NCc4cccnc4)cc3)nn2)cc1

pIC50 [11]: 7.38 | pIC50 (SH-SY5Y): < 5.00
Compound: CN1CCN(Cc2cn(-c3cccc(C(=O)NCCCCCCCn4cc(-c5cccnc5)nn4)c3)nn2)CC1

pIC50 [14]: 9.32 | pIC50 [15]: 9.31
Compound: C#Cc1cccc(Nc2ncnc3cc(OC)c(OCCCCCCCN/C(=N\C#N)Nc4ccncc4)cc23)c1

clearance [16]: 4.33 mL/min/kg | half-life [13]: 180 min
Compound: O=C(NC[C@@H]1CCOC1)c1ccc(NC(=O)N2Cc3ccccc3C2)cc1
inhibition in vivo at 15 mg/kg (HCT-116): 78%

pIC50 [17]: 8.37
Compound: CC(=O)NCc1ncc2cc(COc3ccc(C(=O)NCc4cccnc4)cc3)n(CCC3CCCCC3)c2n1

pIC50 (A2780 [18]): 7.34 | pIC50 [11]: 6.31
Compound: Cc1ccc(C(=O)N(CCCNC(=O)CCCCCCCCN2CCN(S(=O)(=O)c3ccc(NC(=S)NCc4cccnc4)cc3)CC2)[C@@H](c2nc3cc(Cl)ccc3c(=O)n2Cc2ccccc2)C(C)C)cc1
